Source: patent publication US9815794B2, “Inhibition of bacterial biofilms and microbial growth with imidazole derivatives” (North Carolina State University, priority 2011, dated 2017)
Values after ≈ are worked out from the molar mass of the structure shown.

What was measured:
[1] = tested on: R. salexigens; assay: Dispersion of pre-formed biofilms; type: cell-based, Rhodospirillum salexigens; details: Rhodothalassium salexigens, read-out: EC50, 50% dispersion of a pre-formed biofilm
Protocol: (§1) The ability of 15 and 19 to disperse pre-formed biofilms was also determined for all of the aforementioned bacterial strains (both marine and terrestrial). To quantify this effect, the EC50 value of each compound against each bacterial strain was determined, where EC50 is defined as the concentration of compound that elicits 50% dispersion of a pre-formed biofilm. Both compounds are able to disperse pre-formed biofilms at low micromolar concentrations. These concentrations are also microbicidal to planktonic bacteria. […]
(§2) Preformed Biofilms: Dispersion assays were performed by taking an overnight culture of bacterial strain and subculturing it at an OD600 of 0.01 into the necessary medium (brain heart infusion for E. faecium, tryptic soy broth with a 0.5% glucose supplement (TSBG) for MRSA, S. aureus and S. epidermidis, Luria-Bertani (LB) medium for MDRAB and E. coli, and tryptic soy broth with a 0.5% glucose supplement and a 3.0% NaCl supplement (TGN) for R. salexigens, V. cholerae, V. vulnificus and L. anguillarum.) The resulting bacterial suspension was aliquoted (100 μL) into the wells of a 96-well PVC microtiter plate. […] Biofilm dispersion was quantitated by measuring the OD540 of each well in which a negative control lane wherein no biofilm was formed served as a background and was subtracted out.

[2] = tested on: VRE; assay: Dispersion of pre-formed biofilms; type: cell-based, E. faecium (VRE); details: Enterococcus, read-out: EC50, 50% dispersion of a pre-formed biofilm
Protocol: as §1, §2

[3] = tested on: V. cholerae; assay: Dispersion of pre-formed biofilms; type: cell-based; details: Vibrio cholerae, read-out: EC50, 50% dispersion of a pre-formed biofilm
Protocol: (§3) The ability of 15 and 19 to disperse pre-formed biofilms was also determined for all of the aforementioned bacterial strains (both marine and terrestrial). To quantify this effect, the EC50 value of each compound against each bacterial strain was determined, where EC50 is defined as the concentration of compound that elicits 50% dispersion of a pre-formed biofilm. Both compounds are able to disperse pre-formed biofilms at low micromolar concentrations. These concentrations are also microbicidal to planktonic bacteria.
(§4) Procedure to Determine the Dispersal Effect of Test Compounds on E. faecium (VRE), MRSA, S. aureus, S. epidermidis, E. coli, R. salexigens, V. cholerae, V. vulnificus and L. anguillarum
(§5) Preformed Biofilms: Dispersion assays were performed by taking an overnight culture of bacterial strain and subculturing it at an OD600 of 0.01 into the necessary medium (brain heart infusion for E. faecium, tryptic soy broth with a 0.5% glucose supplement (TSBG) for MRSA, S. aureus and S. epidermidis, Luria-Bertani (LB) medium for MDRAB and E. coli, and tryptic soy broth with a 0.5% glucose supplement and a 3.0% NaCl supplement (TGN) for R. salexigens, V. cholerae, V. vulnificus and L. anguillarum.) The resulting bacterial suspension was aliquoted (100 μL) into the wells of a 96-well PVC microtiter plate. Plates were then wrapped in GLAD Press n' Seal® followed by an incubation under stationary conditions at 37° C. to establish the biofilms. After 24 h, the medium was discarded from the wells and the plates were washed thoroughly with water. Stock solutions of predetermined concentrations of the test compound were then made in the necessary medium. These stock solutions were aliquoted (100 μL) into the wells of the 96-well PVC microtiter plate with the established biofilms. Medium alone was added to a subset of the wells to serve as a control. Sample plates were then incubated for 24 h at 37° C. After incubation, the medium was discarded from the wells and the plates were washed thoroughly with water. Plates were then stained with 100 μL of 0.1% solution of crystal violet (CV) and then incubated at ambient temperature for 30 min. Plates were washed with water again and the remaining stain was solubilized with 200 μL of 95% ethanol. A sample of 125 μL of solubilized CV stain from each well was transferred to the corresponding wells of a polystyrene microtiter dish. Biofilm dispersion was quantitated by measuring the OD540 of each well in which a negative control lane wherein no biofilm was formed served as a background and was subtracted out.

[4] = tested on: S. epidermidis; assay: Dispersion of pre-formed biofilms; type: cell-based; details: Staphylococcus epidermidis, read-out: EC50, 50% dispersion of a pre-formed biofilm
Protocol: as §3, §4, §5

[5] = tested on: E. coli; assay: Dispersion of pre-formed biofilms; type: cell-based; details: Escherichia coli, read-out: EC50, 50% dispersion of a pre-formed biofilm
Protocol: as §3, §4, §5

[6] = tested on: V. vulnificus; assay: Dispersion of pre-formed biofilms; type: cell-based; details: Vibrio vulnificus, read-out: EC50, 50% dispersion of a pre-formed biofilm
Protocol: as §3, §4, §5

[7] = tested on: MDRAB; assay: Dispersion of pre-formed biofilms; type: cell-based; details: read-out: EC50, 50% dispersion of a pre-formed biofilm
Protocol: as §3, §4, §5

[8] = tested on: Listonella anguillarum; assay: Marine bacteria microdilution MIC; details: L. anguillarum
[9] = tested on: VRE; assay: Broth microdilution MIC; type: cell-based, vancomycin resistant Enterococcus faecium; details: Enterococcus
Protocol: (§6) Once it was determined that this specific 4,5-disubstitution pattern imparted microbicidal activity onto the 2-AI framework, this activity was quantified by measuring the MIC of each derivative against a variety of representative pathogenic bacterial strains using the microdilution protocol (CSLI, Performance Standards for Antimicrobial Suceptibility Testing; Nineteenth Informational Supplement, Clinical and Laboratory Standards Institute, Wayne, Pa., 2009). E. coli, MDRAB, P. aeruginosa, MRSA, MSSA, S. epidermidis and VRE were used for initial evaluation. From this screen, compound 15 was determined to be the lead compound and had MIC values (μg/mL) of 2, 2, 1, 0.5, 0.25, and 1 against E. coli, MDRAB, MRSA, VRE, S. Epidermidis and MSSA.
(§7) S. aureus (ATCC #29213), S. epidermidis (ATCC #29886), MRSA (ATCC # BAA-44), MDRAB (ATCC # BAA-1605), vancomycin resistant Enterococcus faecium (VRE) (ATCC #51559) and E. coli (ATCC #35695) were obtained from the ATCC. Mechanically difibrinated sheep blood (DSB100) was obtained from Hemostat Labs. Mueller-Hinton medium was purchased from Fluka (#70192).
(§8) Broth Microdilution Method for MIC Determination.

[10] = tested on: MSSA; assay: Dispersion of pre-formed biofilms; type: cell-based, S. aureus; details: Staphylococcus aureus, read-out: EC50, 50% dispersion of a pre-formed biofilm
Protocol: as §1, §2

[11] = Dye dispersion assay from synthetic vesicles; details: 5 minutes
Protocol: Finally, given that active compounds are characterized by a polar head group and a lipophilic tail, it was probed whether compounds 15 and 19 were eliciting their activity via a pore forming mechanism. Compound 1 was used as a control. This was probed via a dye dispersion assay from synthetic vesicles (Liu et al., J. Am. Chem. Soc., 2001, 123, 7553-7559). Two types of vesicles were prepared, one containing 1-palmitoyl-2-oleoyl-sn-glycero-3-phosphocholine (POPC) and the other containing 1-palmitoyl-2-oleoyl-sn-glycero-3-phosphoglycerol (POPG). POPC mimics typical cell membranes encountered for mammalian red blood cells, while POPG mimics the negatively charged lipids encountered in bacterial membranes. In 5 minutes, at 25 μM, compounds 15 and 19 elicited 20% dye leakage from the POPG vesicles while they elicited 10% and 15% dye leakage from the POPC vesicles respectively. However, in 5 minutes at 500 μM, compounds 15 and 19 elicited 78% and 85% dye leakage from the POPG vesicles respectively. In 5 minutes at 25 μM, control compound 1 elicited 9% and 18% leak dye leakage from the POPC and POPG vesicles respectively, while in 5 minutes at 500 μM 1 elicited 15% and 50% leakage from the POPC and POPG vesicles. Given this differential response, and without wishing to be bound by theory, it is likely that compounds 15 and 19 are inducing microbicidal activity through a simple pore-forming mechanism.

[12] = tested on: Vibrio vulnificus; assay: Marine bacteria microdilution MIC; details: V. vulnificus
[13] = tested on: MSSA; assay: Broth microdilution MIC; type: cell-based, S. aureus; details: Staphylococcus aureus
Protocol: as §6, §7, §8

Row | SMILES | EC50 [1] | EC50 [2] | EC50 [3] | EC50 [4] | EC50 [5] | EC50 [6] | EC50 [7] | MIC ([8]; Vibrio anguillarum) | MIC [9] | EC50 [10] | dye leakage ([11]; POPC vesicles, 25 μM) | dye leakage ([11]; POPG vesicles, 25 μM) | dye leakage ([11]; POPG vesicles, 500 μM) | MIC ([12]; Vibrio vulnificus) | MIC [13] | MIC [8] | MIC [12]
1 | CCCCCCc1[nH]c(N)nc1CCCCCc1ccccc1 [Compound 19, 5-hexyl-4-(5-phenylpentyl)-1H-imidazol-2-amine] | 17.6 ± 3.2 µM | 14.1 ± 0.2 µM | 14.7 ± 1.8 µM | 17.7 ± 0.3 µM | 42.5 ± 6.1 µM | 3.2 ± 1.3 µM | 11.1 ± 0.1 µM | 2.2 µg/mL (≈ 7.02 µM) | 0.5 µg/mL (≈ 1.59 µM) | 26.1 ± 0.7 µM | 15% | 20% | 85% | 2.2 µg/mL (≈ 7.02 µM) | 1 µg/mL (≈ 3.19 µM) |  | 
2 | CCCCCc1[nH]c(N)nc1CCCCCc1ccccc1 [Compound 15, 5-pentyl-4-(5-phenylpentyl)-1H-imidazol-2-amine] | 6.6 ± 1.1 µM | 17.3 ± 2.3 µM | 7.12 ± 0.3 µM | 24.7 ± 5.8 µM | 12 ± 1.6 µM | 18.1 ± 2.3 µM | 7.1 ± 1.3 µM | 2.1 µg/mL (≈ 7.01 µM) | 0.5 µg/mL (≈ 1.67 µM) | 19.9 ± 3.3 µM | 10% | 20% | 78% | 2.1 µg/mL (≈ 7.01 µM) | 1 µg/mL (≈ 3.34 µM) | 2.10 µg/mL (≈ 7.01 µM) | 2.10 µg/mL (≈ 7.01 µM)
